According to the OPERA property sets (Mansouri et al. 2018):

Settings: not given

Row | SMILES | boiling point [°C] | log10 biodegradation half-life (days) | log10 vapour pressure (mmHg) | melting point [°C] | log10 Koc (L/kg) | ready biodegradability | log10 Henry constant (atm·m³/mol) | log10 Koa
1 | Cc1cc(C)c(C)c(C)c1 | 198 | 0.477 | -0.303 | -23.7 |  |  |  | 
2 | O=C1OC(=O)c2ccccc21 | 295 |  | -3.29 | 131 | 1.56 | readily biodegradable |  | 
3 | COc1cc2ccc(=O)oc2cc1O |  |  |  | 204 |  |  |  | 
4 | ClC(Cl)=C(c1ccc(Cl)cc1)c1ccc(Cl)cc1 | 336 |  | -5.22 | 89 | 4.82 |  | -4.38 | 9.68
5 | O=C(O)CO |  |  | -1.7 | 79.5 |  | readily biodegradable |  | 
6 | CC[C@H](C)C(C)(C)C | 110 |  | 1.51 | -112 |  |  |  | 
7 | CCOC(=O)c1ccc(C(=O)OCC)cc1 | 302 |  |  | 44 |  |  |  | 
8 | Cc1ccc(F)cc1[N+](=O)[O-] | 213 |  |  | 27 |  |  |  | 
9 | CCCCCCCCCCCCNC(=O)C[N+](C)(C)Cc1ccccc1.[Cl-] |  |  |  | 148 |  |  |  | 
10 | O=C1C(Cl)=C(Cl)C(=O)N1c1ccc(F)cc1 |  |  |  | 241 |  |  |  | 
11 | OCCCCC(F)(F)F | 148 |  |  |  |  |  |  | 
12 | CCCCCC[N+](=O)[O-] | 193 |  |  |  |  |  |  | 
13 | CC(C)(C)c1ccccc1O | 223 |  | -1.05 | -6.8 |  |  |  | 
14 | O=C(OCC(=O)N1CCC(O)CC1)c1ccccc1 |  |  |  | 122 |  |  |  | 
15 | Cc1ccc(C)cc1 | 138 | 0.954 | 0.947 | 13.2 | 2.41 | readily biodegradable | -2.16 | 3.79
16 | CCC(C)C1CCCCC1 (configuration not stated) | 179 |  | 0.37 |  |  |  |  | 
17 | CC(C)OC(=O)C1(S(=O)(=O)c2ccc([N+](=O)[O-])cc2)CCC1 |  |  |  | 65.5 |  |  |  | 
18 | O=C(Nc1ccc(Cl)c(Cl)c1)c1cc(Cl)ccc1O |  |  |  | 247 |  |  |  | 
19 | Cc1cccc(C(=O)O)c1 |  |  | -3.63 | 109 |  | readily biodegradable |  | 
20 | Cc1n[nH]c(=S)[nH]c1=O |  |  |  | 218 |  |  |  | 
21 | CN(C)C(=O)OC1N=C(c2ccccc2)c2cc(Cl)ccc2N(C)C1=O (configuration not stated) |  |  |  | 174 |  |  |  | 
22 | CNC(=O)O/N=C1\[C@@H](Cl)[C@@H]2C[C@H](C#N)[C@H]1C2 |  |  |  | 144 |  |  |  | 
23 | C[C@H](Oc1ccc(Oc2nc3ccc(Cl)cc3o2)cc1)C(=O)O |  |  |  | 158 |  |  |  | 
24 | COc1ccc(C)cc1C | 192 |  |  |  |  |  |  | 
25 | C1=CC(c2ccc(C3CC=CCC3)cc2)CCC1 (configuration not stated) |  |  |  |  |  | not readily biodegradable |  | 

Row | SMILES | boiling point [°C] | log10 biodegradation half-life (days) | log10 vapour pressure (mmHg) | melting point [°C] | log10 Koc (L/kg) | ready biodegradability | log10 Henry constant (atm·m³/mol) | log10 Koa
26 | Brc1ccc2c(c1)Oc1cc(Br)ccc1O2 |  |  | -5.89 | 145 |  |  |  | 
27 | CC(C)OC(=O)Nc1cccc(Cl)c1 |  |  | -3.74 | 41 | 2.6 | readily biodegradable |  | 
28 | Cc1ccc(CCC=O)cc1 | 223 |  |  |  |  |  |  | 
29 | Oc1ccc(C2CCCCC2)cc1Cl |  |  |  | 40.5 |  |  |  | 
30 | CO[C@H]1C=CC2=CCN3CCC4=C(CC(=O)OC4)[C@]23C1 |  |  |  | 99.5 |  |  |  | 
31 | O=C(c1ccc(F)cc1)c1ccc(F)cc1 |  |  |  | 104 |  |  |  | 
32 | O=C1c2ccccc2-c2ccc(Cl)cc21 |  |  |  | 126 |  |  |  | 
33 | c1ccc(-c2nnc(-c3ccccn3)nc2-c2ccccc2)cc1 |  |  |  | 192 |  |  |  | 
34 | O=C[C@H](O)[C@@H](O)[C@@H](O)[C@H](O)C(=O)O |  |  |  | 166 |  |  |  | 
35 | Cc1ccccc1CC#N | 244 |  |  |  |  |  |  | 
36 | CCCCCSC | 145 |  |  | -94 |  |  |  | 
37 | CC(C)CCCCCCC=O | 197 |  |  |  |  |  |  | 
38 | O=C(O)c1ccccc1C(=O)c1ccccc1 | 261 |  |  | 127 |  |  |  | 
39 | CCCC/C=C\C(C)(C)O | 177 |  |  |  |  |  |  | 
40 | O=Cc1ccccc1C(=O)O |  |  |  | 98 |  |  |  | 
41 | CCCCS | 98.5 |  | 1.66 | -116 |  |  | -2.34 | 
42 | O=[N+]([O-])C(Br)(CO)CO |  |  |  | 132 |  | not readily biodegradable |  | 
43 | CC(COc1ccc(C(C)(C)C)cc1)OS(=O)OCCCl (configuration not stated) |  |  |  | -31.7 |  |  |  | 
44 | O=C(O)C(F)Cl (configuration not stated) | 162 |  |  |  |  |  |  | 
45 | CCCCCCc1ccccc1 | 226 |  | -0.919 | -61 |  | readily biodegradable |  | 
46 | CC(Br)(Br)CBr | 190 |  |  |  |  |  |  | 
47 | ClC(Cl)(Br)C(Cl)(Cl)Br |  |  |  | 202 |  |  |  | 
48 | CC1(C)CC(C)(c2ccccc2)c2ccccc21 (configuration not stated) | 308 |  |  | 52.5 |  |  |  | 
49 | Brc1ccc(Oc2ccc(Br)cc2)cc1 | 339 |  |  | 60.5 |  |  |  | 8.64
50 | CCCCCCCCC=CCCCCCCCCCCCCO |  |  |  | 35 |  |  |  | 

Row | SMILES | boiling point [°C] | log10 biodegradation half-life (days) | log10 vapour pressure (mmHg) | melting point [°C] | log10 Koc (L/kg) | ready biodegradability | log10 Henry constant (atm·m³/mol) | log10 Koa
51 | OCCCCCCCCCCCl |  |  |  | 12.5 |  |  |  | 
52 | O=c1c(O)c(-c2ccc(O)c(O)c2)oc2cc(O)ccc12 |  |  |  | 330 |  |  |  | 
53 | CO[C@H]1[C@@H](O)[C@@H](C)O[C@H](O[C@H]2[C@H](Oc3cccc4c(O)c5c(=O)oc6ccc(C)c7c(=O)oc(c34)c5c67)O[C@H](C)[C@H](O)[C@@H]2O)[C@@H]1O |  |  |  | 185 |  |  |  | 
54 | CC1(C)[C@H](C(=O)O)CC[C@]1(C)C(=O)O |  |  |  | 189 |  |  |  | 
55 | CCCC[Si](Cl)(Cl)Cl | 148 |  |  |  |  |  |  | 
56 | Cc1cccc(N)c1 | 203 |  | -0.519 | -31.2 | 1.53 | not readily biodegradable | -5.78 | 
57 | CC[C@H](C)[C@@H](C)[C@@H](C)O | 166 |  |  |  |  |  |  | 
58 | C=COCCCC | 94 |  | 1.69 | -92 |  |  |  | 
59 | O=C(O)C1CCCC1 | 212 |  |  | -7 |  |  |  | 
60 | CCCCOCc1ccccc1 | 223 |  |  |  |  |  |  | 
61 | COC | -24.8 |  | 3.65 | -142 |  | not readily biodegradable |  | 1.37
62 | C#CCCCCCC | 126 |  | 1.13 | -79.3 |  |  |  | 
63 | CS/C(C)=N/OC(=O)N(C)SN(C)C(=O)O/N=C(\C)SC |  |  | -4.15 | 173 | 2.54 |  |  | 
64 | BrC1CCCCC1 | 166 |  |  | -56.5 |  |  |  | 
65 | NCCCCCCCCCCN |  |  |  | 62.5 |  |  |  | 
66 | ClC1=C(Cl)C(Cl)(C2(Cl)C(Cl)=C(Cl)C(Cl)=C2Cl)C(Cl)=C1Cl |  |  | -5.66 | 122 | 4.52 |  |  | 
67 | CCS(=O)(=O)O |  |  |  | -17 |  |  |  | 
68 | C#CC#C | 10.3 |  | 3.12 | -36.4 |  |  |  | 
69 | Cc1ccc(-c2ccc(C)cc2C)c(C)c1 | 287 |  |  | 41 |  |  |  | 
70 | O=P(OCC(Br)CBr)(OCC(Br)CBr)OCC(Br)CBr (configuration not stated) |  |  |  | 5.5 |  | readily biodegradable |  | 
71 | CC(C)(Cl)Cl | 69.3 |  |  | -33.8 |  |  |  | 
72 | CC(C)[C@@H](C)/C=C/[C@@H](C)[C@H]1CC[C@H]2C3=CC=C4C[C@@H](O)CC[C@]4(C)C3=CC[C@]12C |  |  |  | 146 |  |  |  | 
73 | c1ccc(-c2c3ccccc3nc3ccccc23)cc1 | 404 |  |  | 184 |  |  |  | 
74 | ClCCCBr | 143 |  | 0.806 | -58.9 |  | not readily biodegradable |  | 
75 | CCOC(=O)C1N=C(c2ccccc2F)c2cc(Cl)ccc2NC1=O (configuration not stated) |  |  |  | 194 |  |  |  | 

Row | SMILES | boiling point [°C] | log10 biodegradation half-life (days) | log10 vapour pressure (mmHg) | melting point [°C] | log10 Koc (L/kg) | ready biodegradability | log10 Henry constant (atm·m³/mol) | log10 Koa
76 | C[C@H]1CC[C@@]2(O)C(C)(C)[C@@H]3CC[C@@]2(C)[C@H]1C3 |  |  |  | 56 |  |  |  | 
77 | C/C=C/C=C/C(=O)O |  |  |  |  |  | readily biodegradable |  | 
78 | CCc1oc2ccccc2c1C(=O)c1ccc(O)cc1 |  |  |  | 124 |  |  |  | 
79 | Nc1ccc(F)c(Cl)c1 | 228 |  |  | 45.5 |  |  |  | 
80 | OCCCCl | 165 |  |  |  |  |  |  | 
81 | COc1cccc(C(N)=O)c1 |  |  |  | 134 |  |  |  | 
82 | CCCC(O)C(CC)CO (configuration not stated) | 244 |  | -2.52 | -40 |  |  |  | 
83 | Ic1cccc2ccccc12 | 302 |  |  | 4.2 |  | readily biodegradable |  | 
84 | COC(=O)c1cc(Cl)ccc1[N+](=O)[O-] |  |  |  | 48.5 |  |  |  | 
85 | O=C(O)c1c(Br)cccc1Br |  |  |  | 150 |  |  |  | 
86 | O=C(OCc1ccccc1)c1sc(Cl)nc1C(F)(F)F |  |  | -6.53 | 52 |  |  |  | 
87 | CN(C)c1ccc(Cc2ccc(N(C)C)cc2)cc1 | 390 |  |  | 91.5 | 3.96 | not readily biodegradable |  | 
88 | O=C(O)[C@@H](S)[C@@H](S)C(=O)O |  |  |  | 193 |  |  |  | 
89 | O=C1C(Cl)C(CCl)CN1c1cccc(C(F)(F)F)c1 (configuration not stated) |  |  | -5.48 | 67.7 |  |  |  | 
90 | NCCOP(=O)(O)O |  |  |  | 242 |  |  |  | 
91 | FC1=C(F)C(F)(F)C(F)(F)C(F)(F)C1(F)F | 52 |  |  |  |  |  |  | 
92 | NS(=O)(=O)c1ccc(CCCCCO)cc1 |  |  |  | 86 |  |  |  | 
93 | Cc1cccc(Cl)c1N | 215 |  |  | 2 |  |  |  | 
94 | CCC(C)CC(C)C (configuration not stated) | 110 | 0.845 | 1.48 |  |  |  |  | 
95 | Cc1ccc(I)cc1 | 211 |  |  | 36.5 |  |  |  | 
96 | CC(Cl)(Cl)[N+](=O)[O-] | 124 |  | 1.23 |  |  |  |  | 
97 | OCCNCCNCCO |  |  |  | 97.5 |  |  |  | 
98 | BrCBr | 97 |  | 1.65 | -52.5 |  |  | -3.09 | 3.07

Same assay, conditions: fish

Row | SMILES | log10 BCF | log10 biotransformation half-life (days)
99 | O=S(=O)(O)c1ccc(O)c2ccccc12 | 1.11 | 
100 | ClC(Cl)=C(c1ccc(Cl)cc1)c1ccc(Cl)cc1 | 4.08 | 1.71
101 | Cc1ccc(C)cc1 | 1.17 | 
102 | O=P(OCC(Br)CBr)(OCC(Br)CBr)OCC(Br)CBr (configuration not stated) | 0.51 | 
103 | CN(C)c1ccc(Cc2ccc(N(C)C)cc2)cc1 |  | -0.04
